{"source": "patent US5861439A", "about": "“Method for enhanced electrotransport agent delivery” (priority 1994, dated 1999)", "key": {"[1]": {"tested_on": "human cadaver skin", "conditions": "for increase in the rate of delivery of ketoprofen: electrotransport, versus control (no enhancer); for Normalized Skin Resistance: ketoprofen electrotransport, steady state, divided by control (no enhancer), 100 μA/cm^2, 32° C.", "method": "(§1) Skin strips having a thickness of 1 mm were removed from a human cadaver with an electric dermatome. These skin strips were placed in polyethylene bags, sealed and placed in a refrigerator at 4° C. for temporary storage. Prior to use in an electrotransport cell, the skin strips were placed in 1 liter beakers containing water at 60° C. for about 90 seconds, and gently stirred. The skin strips were then removed, and placed onto the absorbent side of a piece of BENCHKOTE fabric with their dermis side down. The epidermis was removed from each strip with a round-tip spatula, and flat tipped tweezers to retain the dermis. Each epidermis, stratum corneum side up, was then transferred to a 5 cm deep PYREX glass tray filled with water. Each floating epidermis was stretched essentially flat, and then removed from the water, and 2.2 cm diameter disks of each epidermis were punched out of areas having no observable surface damage. The disks were stored at 4° C. in a sealed container with water droplets to maintain their moisture.\n(§2) The disks were mounted between the donor and receptor compartments, with the stratum corneum side facing the donor compartment, of a 2-compartment polycarbonate electrotransport permeation cell. The volume of each compartment was about 2 mL and the area between the two compartments, ie, the exposed area for transport, was about 1.26 cm^2.\n(§3) An aqueous solution of the drug being transdermally delivered and the selected permeation enhancer composition, if any, was placed in the donor compartment. Dulbecco's phosphate buffered saline (approximately 0.15N NaCl, pH 7.0) was placed in the receptor compartment.\n(§4) The rate of transport of drug and the electrical resistance of the skin were monitored throughout the experiments while applying an electric current.\n(§5) The cell was maintained at 32° C. by a Haake Model D1 heating block/water bath. The electrodes were connected to a galvanostat, which applied a constant current of 126 μA (current density of 100 μA/cm^2) and monitored the voltage drop across the skin by placing two Ag/AgCl junction reference electrodes, one each in the donor and receptor solutions, and measuring the voltage difference (AV) between the electrodes.\n(§6) The resistance of the skin (R) was obtained from Ohm's law:\n(§7) where i equals the applied current (ie, 126 μA).\nThe following experiments were conducted to assess the effect of one composition of the invention, containing ethanol and dodecanol, on the transdermal delivery of sodium ketoprofen (ketoprofen anions) by electrotransport from a cathodic electrode. The electrotransport delivery of ketoprofen in the presence of various enhancers was assessed side-by-side for comparative purposes. The enhancers used were as follows: (i) ethanol alone; (ii) dodecanol alone; (iii) no enhancer; (iv) ethanol and dodecanol. […] A silver chloride composite polymer electrode (cathode) was placed in the donor compartment, and a silver foil electrode (anode) was placed in the receptor compartment.\nEach experiment was started by connecting the power source to the electrodes, and samples were automatically taken from the receptor compartment every one to two hours, except for overnight experimentation, using an Isco Model 2230 autosampler and a metering pump. The concentration of ketoprofen in the samples was determined by high performance liquid chromatography (HPLC) using a Shimadzu Model SCL-6B chromatograph. Each run was conducted in triplicate, including the control, to minimize errors. All cells were set-up with tissue from the same cadaver. The selected permeation enhancer composition was placed in the donor compartment, while the control cell's donor compartment contained no enhancer."}, "[2]": {"tested_on": "human cadaver skin", "conditions": "for Normalized Skin Resistance (after 5 hrs): metoclopramide electrotransport, n=3, 100 μA/cm^2, 32° C.", "method": "as §1, §2, §3, §4, §5, §6, §7\nThe experimental conditions were identical to those described in Example 1, except an aqueous solution of metoclopramide HCl, instead of sodium ketoprofen, was placed in the donor compartment. In addition, the silver chloride cathode was placed in the receptor compartment and the silver foil anode was placed in the donor compartment since metoclopramide ions are cationic as opposed to ketoprofen ions which are anionic. The concentration of metoclopramide in the donor solution was about 100 mg metoclopramide/mL, and saline pH 7 was placed in the receptor compartment. The system was maintained at 32° C. and a constant electric current of 100 μA/cm^2 was applied throughout the procedure.\nThe mass flux and skin resistance values were normalized versus the control. […] The skin resistance (which was calculated from the measured cell voltage ΔV using Ohm's law, […]) was also normalized with respect to the value obtained by electrotransport of metoclopramide in the absence of any permeation enhancer (rightmost column)."}, "[3]": {"tested_on": "skin", "conditions": "cited from earlier work; for rate of electrotransport of sotalol (in words): compared to electrotransport without DDAA or azone (control)"}, "[4]": {"tested_on": "skin", "conditions": "relative to sotalol alone (control); no current; cited from earlier work"}}, "note": "Like-named read-outs stand apart in the source and are kept apart here."}
{"molecule": "CCCCCCCCCCCCO", "note": "[Dodecanol, dodecanol]", "values": [{"measurement": "reduction in skin resistance", "setting": "[1]", "value": "~60", "unit": "%"}, {"measurement": "increase in the rate of delivery of ketoprofen", "setting": "[1]", "value": 93, "unit": "%"}, {"measurement": "Normalized Skin Resistance", "setting": "[1]; enhancer dodecanol <100 mM", "value": 0.39}]}
{"molecule": "CCO", "note": "[Ethanol, ethanol]", "values": [{"measurement": "mass flux of metoclopramide (in words)", "setting": "[2]", "value": "not to enhance, but to actually decrease, the mass flux of metoclopramide"}, {"measurement": "Normalized Skin Resistance (after 5 hrs)", "setting": "[2]; ethanol 10 wt %, versus no enhancer", "value": 1.32}, {"measurement": "Normalized Skin Resistance (after 5 hrs)", "setting": "[2]; ethanol 20 wt %, versus no enhancer", "value": 1.13}, {"measurement": "Normalized Skin Resistance (after 5 hrs)", "setting": "[2]; ethanol 30 wt %, versus no enhancer", "value": 1.26}, {"measurement": "resistance of the skin during electrotransport delivery of metoclopramide (in words)", "setting": "[2]; ethanol alone, versus no enhancer", "value": "increase the resistance of the skin"}, {"measurement": "reduction in skin resistance", "setting": "[1]", "value": "> 50", "unit": "%"}, {"measurement": "increase in the rate of delivery of ketoprofen", "setting": "[1]", "value": 24, "unit": "%"}, {"measurement": "Normalized Skin Resistance", "setting": "[1]; enhancer 25% v/v ethanol", "value": 0.47}, {"measurement": "effect of difference in ethanol concentration (25% v/v alone, 20% v/v with dodecanol)", "setting": "[1]; in words, said to be confirmed in Example 2", "value": "does not significantly alter its effect"}]}
{"molecule": "CCCCCCCCCCCCN1CCCCCC1=O", "note": "[azone]", "values": [{"measurement": "rate of electrotransport of sotalol (in words)", "setting": "[3]", "value": "actually reduced the rate of electrotransport delivery of the agent"}, {"measurement": "rate of passive permeation of sotalol (in words)", "setting": "[4]", "value": "increase the rate of passive permeation"}]}
{"molecule": "CC(C)NCC(O)c1ccc(NS(C)(=O)=O)cc1", "note": "(centres unmarked) [sotalol]", "values": [{"measurement": "rate of delivery of sotalol with passage of an electric current (in words)", "setting": "[3]; compared to its passive rate (control)", "value": "increase the rate of delivery of sotalol compared to that of its passive rate"}]}
{"molecule": "N, N-dimethylamino acetate [DDAA]", "values": [{"measurement": "rate of electrotransport of sotalol (in words)", "setting": "[3]", "value": "actually reduced the rate of electrotransport delivery of the agent"}, {"measurement": "rate of passive permeation of sotalol (in words)", "setting": "[4]", "value": "increase the rate of passive permeation"}]}
